In US8846710B2, “Method of preferentially inducing the biosynthesis of interferon” (3M Innovative Properties Company, priority 2005, dated 2014):
Like-named read-outs stand apart in the source and are kept apart here.

Columns and labels:
interferon (α) (IFN-α) = assay: Cytokine induction in human cells: IFN-α secreted by PBMC into culture media (ELISA); assay type: cell-based; settings: for minimal effective concentration / Maximal Response IFN / Minimum Effective Concentration IFN: human PBMC; for minimal effective concentration: lowest tested concentration inducing IFN-α over usually 20 pg/mL, median where more than one experiment, read-out: Minimum Effective Concentration (μM) IFN; for Maximal Response (pg/mL) IFN: maximal response in dose response curve, median; for Maximal Response IFN / Minimum Effective Concentration IFN: median where tested in more than one experiment
Source text: (§1) Cytokine Induction in Human Cells
(§2) An in vitro human blood cell system is used to assess cytokine induction. Activity is based on the measurement of interferon (α) and tumor necrosis factor (α) (IFN-α and TNF-α, respectively) secreted into culture media as described by Testerman et. al. in “Cytokine Induction by the Immunomodulators Imiquimod and S-27609”, Journal of Leukocyte Biology, 58, 365-372 (September, 1995).
(§3) Blood Cell Preparation for Culture
(§4) Whole blood from healthy human donors is collected by venipuncture into vacutainer tubes or syringes containing EDTA. Peripheral blood mononuclear cells (PBMC) are separated from whole blood by density gradient centrifugation using HISTOPAQUE-1077 (Sigma, St. Louis, Mo.) or Ficoll-Paque Plus (Amersham Biosciences Piscataway, N.J.). Blood is diluted 1:1 with Dulbecco's Phosphate Buffered Saline (DPBS) or Hank's Balanced Salts Solution (HBSS). Alternately, whole blood is placed in Accuspin (Sigma) or LeucoSep (Oreiner Bio-One, Inc., Longwood, Fla.) centrifuge frit tubes containing density gradient medium. The PBMC layer is collected and washed twice with DPBS or HBSS and re-suspended at 4×10^6 cells/mL in RPMI complete. The PBMC suspension is added to 96 well flat bottom sterile tissue culture plates containing an equal volume of RPMI complete media containing test compound.
(§5) The compounds are solubilized in dimethyl sulfoxide (DMSO). The DMSO concentration should not exceed a final concentration of 1% for addition to the culture wells. The compounds are generally tested at concentrations ranging from 30-0.014 μM. Controls include cell samples with media only, cell samples with DMSO only (no compound), and cell samples with reference compound.
(§6) The solution of test compound is added at 60 μM to the first well containing RPMI complete and serial 3 fold dilutions are made in the wells. The PBMC suspension is then added to the wells in an equal volume, bringing the test compound concentrations to the desired range (usually 30-0.014 μM). The final concentration of PBMC suspension is 2×10^6 cells/mL. The plates are covered with sterile plastic lids, mixed gently and then incubated for 18 to 24 hours at 37° C. in a 5% carbon dioxide atmosphere.
(§7) Following incubation the plates are centrifuged for 10 minutes at 1000 rpm (approximately 200×g) at 4° C. The cell-free culture supernatant is removed and transferred to sterile polypropylene tubes. Samples are maintained at −30 to −70° C. until analysis. The samples are analyzed for IFN-α by ELISA and for TNF-α by IGEN/BioVeris Assay.
(§8) Interferon (α) and Tumor Necrosis Factor (α) Analysis
IFN-α concentration is determined with a human multi-subtype calorimetric sandwich ELISA (Catalog Number 41105) from PBL Biomedical Laboratories, Piscataway, N.J. Results are expressed in pg/mL.
(§9) In total, the data output of the assay consists of concentration values of TNF-α and IFN-α (y-axis) as a function of compound concentration (x-axis).
Analysis of the data has two steps. First, the greater of the mean DMSO (DMSO control wells) or the experimental background (usually 20 pg/mL for IFN-α and 40 pg/mL for TNF-α) is subtracted from each reading. If any negative values result from background subtraction, the reading is reported as “*”, and is noted as not reliably detectable. In subsequent calculations and statistics, “*”, is treated as a zero. Second, all background subtracted values are multiplied by a single adjustment ratio to decrease experiment to experiment variability. The adjustment ratio is the area of the reference compound in the new experiment divided by the expected area of the reference compound based on the past 61 experiments (unadjusted readings). […] The reference compound used is 2-[4-amino-2-ethoxymethyl-6,7,8,9-tetrahydro-α,α-dimethyl-1H-imidazo[4,5-c]quinolin-1-yl]ethanol hydrate (U.S. Pat. No. 5,352,784; Example 91) and the expected area is the sum of the median dose values from the past 61 experiments. […]

[1] = system: tumor necrosis factor (α) (TNF-α); assay: Cytokine induction in human cells: TNF-α secreted by PBMC into culture media (ORIGEN M-Series immunoassay); assay type: cell-based; parameters: key to Maximal Response (pg/mL) TNF / Maximal Response TNF: If any negative values result from background subtraction, the reading is reported as “*”, and is noted as not reliably detectable; settings: for minimal effective concentration / Minimum Effective Concentration TNF / Maximal Response TNF: human PBMC; for minimal effective concentration: lowest tested concentration inducing TNF-α over usually 40 pg/mL, median where more than one experiment, read-out: Minimum Effective Concentration (μM) TNF; for Maximal Response (pg/mL) TNF: maximal response in dose response curve; for Maximal Response (pg/mL) TNF / Maximal Response TNF: median; for Minimum Effective Concentration TNF: median where tested in more than one experiment
Source text: as §1, §2, §3, §4, §5, §6, §7, §8
The TNF-α concentration is determined by ORIGEN M-Series Immunoassay and read on an IGEN M-8 analyzer from BioVeris Corporation, formerly known as IGEN International, Gaithersburg, Md. The immunoassay uses a human TNF-α capture and detection antibody pair (Catalog Numbers AHC3419 and AHC3712) from Biosource International, Camarillo, Calif. Results are expressed in pg/mL.
as §9
Analysis of the data has two steps. First, the greater of the mean DMSO (DMSO control wells) or the experimental background (usually 20 pg/mL for IFN-α and 40 pg/mL for TNF-α) is subtracted from each reading. If any negative values result from background subtraction, the reading is reported as “*”, and is noted as not reliably detectable. In subsequent calculations and statistics, “*”, is treated as a zero. Second, all background subtracted values are multiplied by a single adjustment ratio to decrease experiment to experiment variability. The adjustment ratio is the area of the reference compound in the new experiment divided by the expected area of the reference compound based on the past 61 experiments (unadjusted readings). […]

[2] = Table 10, * = below experimental background level
[3] = Table 11, * = TNF below experimental background of 40 pg/mL
[4] = Table 12, * = below the experimental background of 40 pg/mL

SMILES | Maximal Response (pg/mL) IFN (interferon (α) (IFN-α); [2]) [pg/mL] | Maximal Response IFN (interferon (α) (IFN-α); Table 11) [pg/mL] | Minimum Effective Concentration IFN (interferon (α) (IFN-α); Table 11) [µM] | Minimum Effective Concentration TNF ([1]; Table 11) [µM] | Maximal Response TNF [1, 3] [pg/mL] | further results
CCOCc1nc2c(N)nc3cc(-c4cccc(C(=O)N5CCOCC5)c4)ccc3c2n1CC1CCCCC1 [Analog 46] | 815 |  |  |  |  | minimal effective concentration (interferon (α) (IFN-α); Table 10): 0.014 µM; minimal effective concentration ([1]; Table 10): 0.37 µM; Maximal Response (pg/mL) TNF [1, 2]: 1054 pg/mL
CC(C)(CN)Cn1c(CCO)nc2c(N)nc3ccccc3c21 [Example 129] |  | 2702 | 0.37 | 30 | 85 | 
COCCc1nc2c(N)nc3ccccc3c2n1CCCCNS(C)(=O)=O [Analog 52] |  | 7594 | 0.014 | 0.37 | 1931 | 
Cc1nc2c(N)nc3ccccc3c2n1CCOCCN(C)S(C)(=O)=O [Analog 77] |  | 1001 | 0.12 | 1.11 | 3571 | 
CCOCc1nc2c(N)nc3cc(-c4cccnc4)ccc3c2n1CC(C)(C)O [Analog 10, 1-(4-amino-2-ethoxymethyl-7-pyridin-3-yl-1H-imidazo[4,5-c]quinolin-1-yl)-2-methylpropan-2-ol] | 840 |  |  |  |  | Maximal Response (pg/mL) IFN (interferon (α) (IFN-α); Table 9, background-subtracted, reference-adjusted): 840 pg/mL; Maximal Response (pg/mL) TNF [1, 2]: 7867 pg/mL
COCCc1nc2c(N)nc3cc(-c4cccnc4)ccc3c2n1CC(C)C [Analog 25] | 1199 |  |  |  |  | minimal effective concentration (interferon (α) (IFN-α); Table 10): 0.014 µM; minimal effective concentration ([1]; Table 10): 0.04 µM; Maximal Response (pg/mL) TNF [1, 2]: 3151 pg/mL
Cc1nc2c(N)nc3ccccc3c2n1CCCNC(=O)C(C)C [Analog 123] |  | 3011 | 1.11 | 10 | 405 | 
CCc1nc2c(N)nc3ccccc3c2n1CCCCNC(=O)N1CCOCC1 [Analog 54] |  | 4975 | 0.37 | 3.33 | 2570 | 
CCCc1nc2c(N)nc3ccccc3c2n1CCCNS(C)(=O)=O [Analog 60] |  | 2148 | 1.11 | 10 | 109 | 
CCOCc1nc2c(N)nc3cccnc3c2n1CC(C)C [Analog 132, 2-ethoxymethyl-1-(2-methylpropyl)-1H-imidazo[4,5-c][1,5]naphthyridin-4-amine] |  |  |  |  |  | Maximal Response IFN (interferon (α) (IFN-α); Table 12): 1524 pg/mL; Maximal Response TNF [1, 4]: 3160 pg/mL
CC(C)(O)Cn1c(CO)nc2c(N)nc3cc(-c4cccnc4)ccc3c21 [Example 163] |  |  |  |  |  | minimal effective concentration (interferon (α) (IFN-α); Table 10): 0.37 µM; minimal effective concentration ([1]; Table 9): >30 µM; Maximal Response (pg/mL) TNF ([1]; Table 9, * = below experimental background level of 40 pg/mL): *; minimal effective concentration ([1]; Table 10): 10 µM; Maximal Response (pg/mL) TNF [1, 2]: 51 pg/mL
Cc1nc2c(N)nc3ccccc3c2n1CCCCNC(=O)N1CCOCC1 [Analog 53] |  | 1538 | 0.12 | 10 | 1400 | 
CC(C)(O)Cn1c(CO)nc2c(N)nc3cc(-c4cncc(CO)c4)ccc3c21 [Example 189] | 4357 |  |  |  |  | 
CCCc1nc2c(N)nc3ccccc3c2n1CCCCNC(=O)N1CCOCC1 [Analog 55] |  | 11255 | 0.12 | 1.11 | 1298 | 
CCOCc1nc2c(N)nc3cc(-c4cccnc4)ccc3c2n1CCCCNC(=O)C1CCCC1 [Analog 35] | 969 |  |  |  |  | minimal effective concentration (interferon (α) (IFN-α); Table 10): 0.04 µM; minimal effective concentration ([1]; Table 10): 0.37 µM; Maximal Response (pg/mL) TNF [1, 2]: 1366 pg/mL
CCOCc1nc2c(N)nc3cc(-c4cccnc4)ccc3c2n1CC(C)C [Analog 26] | 591 |  |  |  |  | minimal effective concentration (interferon (α) (IFN-α); Table 10): 0.014 µM; minimal effective concentration ([1]; Table 10): 0.12 µM; Maximal Response (pg/mL) TNF [1, 2]: 647 pg/mL
CS(=O)(=O)NCCn1c(CCO)nc2c(N)nc3cccnc3c21 [Example 147, N-{2-[4-Amino-2-(2-hydroxyethyl)-1H-imidazo[4,5-c][1,5]naphthyridin-1-yl]ethyl}methanesulfonamide] |  |  |  |  |  | Maximal Response IFN (interferon (α) (IFN-α); Table 12): 49 pg/mL; Maximal Response TNF [1, 4]: *
Nc1nc2cc(-c3cccc(C(=O)N4CCOCC4)c3)ccc2c2c1nc(CO)n2CC1CCCCC1 [Example 206] | 1266 |  |  |  |  | 
CC(C)(N)Cn1c(CO)nc2c(N)nc3ccccc3c21 [Example 4, 1-(2-Amino-2-methylpropyl)-2-hydroxymethyl-1H-imidazo[4,5-c]quinolin-4-amine] |  | 1893 |  |  |  | 
Nc1nc2cc(-c3cncc(CO)c3)ccc2c2c1nc(CO)n2CC1CCCCC1 [Example 205] | 1087 |  |  |  |  | 
CC(C)NC(=O)NCCn1c(CO)nc2c(N)nc3ccccc3c21 [Example 365, N-{2-[4-amino-2-(hydroxymethyl)-1H-imidazo[4,5-c]quinolin-1-yl]ethyl}-N′-isopropylurea] |  | 1488 |  |  |  | 
Nc1nc2ccccc2c2c1nc(CCO)n2CCCNC(=O)c1cc2ccccc2cn1 [Example 2, N-{3-[4-Amino-2-(2-hydroxyethyl)-1H-imidazo[4,5-c]quinolin-1-yl]propyl}isoquinoline-3-carboxamide] |  | 507 |  |  |  | 
CC(C)C(=O)N1CCC(Cn2c(CO)nc3c(N)nc4cc(-c5cccnc5)ccc4c32)CC1 [Example 191] | 969 |  |  |  |  | 
